#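 Assay format: 96-well plates, 48-hour exposure. TGI denotes the concentration required for complete inhibition of growth.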
# Tests used:
# Experiment in all cases: NCI tumour cell line growth inhibition, 48 h
# [1] = system: A498 renal
# [2] = system: DMS 114 small cell lung
# [3] = system: HCT-15 colon
# [4] = system: LXFL 529 NSCLC
# [5] = system: K-562 leukemia
# [6] = system: MALME-3M melanoma
# [7] = system: HOP-62 NSCLC
# [8] = system: SF-295 CNS
# [9] = system: RPMI-8226 leukemia
# [10] = system: A549 NSCLC
# [11] = system: COLO 205 colon
# [12] = system: U251 CNS
# [13] = system: IGROV1 ovarian
# [14] = system: SK-MEL-2 melanoma
# [15] = system: OVCAR-4 ovarian
# [16] = system: SR leukemia
# [17] = system: OVCAR-5 ovarian
# [18] = system: SW-620 colon
# [19] = system: ACHN renal
# [20] = system: HCC-2998 colon
# [21] = system: EKVX NSCLC
# [22] = system: HOP-92 NSCLC
# [23] = system: SNB-19 CNS
# [24] = system: OVCAR-8 ovarian
# [25] = system: SK-MEL-28 melanoma
# [26] = system: NCI-H460 lung
# [27] = system: NCI-H522 lung
# [28] = system: TK-10 renal
# [29] = system: DMS 273 small cell lung
# [30] = system: HT29 colon
# [31] = system: RXF 393 renal
# [32] = system: HCT-116 colon
# [33] = system: XF 498 CNS
# [34] = system: HL-60(TB) leukemia
# [35] = system: SF-268 CNS
# [36] = system: KM20L2 colon
# [37] = system: HOP-18 NSCLC
# [38] = system: MOLT-4 leukemia
# [39] = system: M19-MEL melanoma
# [40] = system: UACC-62 melanoma
# [41] = system: CCRF-CEM leukemia
# [42] = system: DLD-1 colon
# [43] = system: UACC-257 melanoma
# [44] = system: NCI-H23 lung
# [45] = system: LOX IMVI melanoma
# [46] = system: M14 melanoma
# [47] = system: SN12C renal
# [48] = system: SK-OV-3 ovarian
# [49] = system: CAKI-1 renal
# [50] = system: 786-0 renal
# [51] = system: UO-31 renal
# [52] = system: SK-MEL-5 melanoma
# [53] = system: SNB-78 CNS
# [54] = system: NCI-H226 lung
# [55] = system: OVCAR-3 ovarian
# [56] = system: KM12 colon
# [57] = system: SF-539 CNS
# [58] = system: RXF-631 renal
# [59] = system: SNB-75 CNS
smiles,measurement,setting,value
CC(=O)OCC1OC(n2c(=O)[nH]c(=O)c3n[nH]nc32)C(OC(C)=O)C(OC(C)=O)C1OC(C)=O (stereo not drawn),TGI,[1],> 100 µM
same,TGI,[2],> 100 µM
same,TGI,[3],> 100 µM
same,TGI,[4],> 100 µM
same,TGI,[5],> 100 µM
same,TGI,[6],> 100 µM
same,TGI,[7],> 100 µM
same,TGI,[8],> 100 µM
same,TGI,[9],> 100 µM
same,TGI,[10],> 100 µM
same,TGI,[11],> 100 µM
same,TGI,[12],> 100 µM
same,TGI,[13],> 100 µM
same,TGI,[14],> 100 µM
same,TGI,[15],> 100 µM
same,TGI,[16],> 100 µM
same,TGI,[17],> 100 µM
same,TGI,[18],> 100 µM
same,TGI,[19],> 100 µM
same,TGI,[20],> 100 µM
same,TGI,[21],> 100 µM
same,TGI,[22],> 100 µM
same,TGI,[23],> 100 µM
same,TGI,[24],> 100 µM
same,TGI,[25],> 100 µM
same,TGI,[26],> 100 µM
same,TGI,[27],> 100 µM
same,TGI,[28],> 100 µM
same,TGI,[29],> 100 µM
same,TGI,[30],> 100 µM
same,TGI,[31],> 100 µM
same,TGI,[32],> 100 µM
same,TGI,[33],> 100 µM
same,TGI,[34],> 100 µM
same,TGI,[35],> 100 µM
same,TGI,[36],> 100 µM
same,TGI,[37],> 100 µM
same,TGI,[38],> 100 µM
same,TGI,[39],> 100 µM
same,TGI,[40],> 100 µM
same,TGI,[41],> 100 µM
same,TGI,[42],> 100 µM
same,TGI,[43],> 100 µM
same,TGI,[44],> 100 µM
same,TGI,[45],> 100 µM
same,TGI,[46],> 100 µM
same,TGI,[47],> 100 µM
same,TGI,[48],> 100 µM
same,TGI,[49],> 100 µM
same,TGI,[50],> 100 µM
same,TGI,[51],> 100 µM
same,TGI,[52],> 100 µM
C/C=C(\NC(=O)C(CCCCN)NC(=O)C(C)NC(=O)C1CSC(C)C(NC(=O)C2CSCC(NC(=O)C(C)NC(=O)C(N)C(C)CC)C(=O)NC(CCCCN)C(=O)NC(Cc3ccccc3)C(=O)NC(CC(C)C)C(=O)N2)C(=O)N2CCCC2C(=O)NCC(=O)N1)C(=O)NCC(=O)NC1CSCC2NC(=O)C(Cc3ccc(O)cc3)NC(=O)C(CSC=CNC2=O)NC(=O)C(CC(N)=O)NC(=O)C(Cc2ccccc2)NC1=O (stereo not drawn),TGI,[2],> 100 µM
same,TGI,[4],> 100 µM
same,TGI,[29],> 100 µM
same,TGI,[33],> 100 µM
same,TGI,[39],> 100 µM
same,TGI,[42],> 100 µM
same,TGI,[44],> 100 µM
same,TGI,[53],> 100 µM
Cc1ccc(N2C(=O)/C(=C/c3ccc(N(CCC#N)CCC#N)cc3)N=C2COc2ccc(Cl)cc2Cl)cc1,TGI,[54],> 100 µM
same,TGI,[2],> 100 µM
same,TGI,[3],> 100 µM
same,TGI,[4],> 100 µM
same,TGI,[5],> 100 µM
same,TGI,[6],> 100 µM
same,TGI,[7],> 100 µM
same,TGI,[8],> 100 µM
same,TGI,[9],> 100 µM
same,TGI,[10],> 100 µM
same,TGI,[55],> 100 µM
same,TGI,[11],> 100 µM
same,TGI,[12],> 100 µM
same,TGI,[13],> 100 µM
same,TGI,[14],> 100 µM
same,TGI,[15],> 100 µM
same,TGI,[16],> 100 µM
same,TGI,[17],> 100 µM
same,TGI,[18],> 100 µM
same,TGI,[19],> 100 µM
same,TGI,[21],> 100 µM
same,TGI,[23],> 100 µM
same,TGI,[24],> 100 µM
same,TGI,[25],> 100 µM
same,TGI,[26],> 100 µM
same,TGI,[27],> 100 µM
same,TGI,[28],> 100 µM
same,TGI,[30],> 100 µM
same,TGI,[31],> 100 µM
same,TGI,[32],> 100 µM
same,TGI,[33],> 100 µM
same,TGI,[34],> 100 µM
same,TGI,[56],> 100 µM
same,TGI,[35],> 100 µM
same,TGI,[36],> 100 µM
same,TGI,[57],> 100 µM
same,TGI,[37],> 100 µM
same,TGI,[38],> 100 µM
same,TGI,[40],> 100 µM
same,TGI,[41],> 100 µM
same,TGI,[42],> 100 µM
same,TGI,[58],> 100 µM
same,TGI,[43],> 100 µM
same,TGI,[44],> 100 µM
same,TGI,[45],> 100 µM
same,TGI,[53],> 100 µM
same,TGI,[46],> 100 µM
same,TGI,[59],> 100 µM
same,TGI,[47],> 100 µM
same,TGI,[48],> 100 µM
same,TGI,[49],> 100 µM
same,TGI,[50],> 100 µM
same,TGI,[51],> 100 µM
same,TGI,[52],> 100 µM
O=C1OC(=O)C23CSCC12C1C=CC3O1 (stereo not drawn),TGI,[54],> 100 µM
same,TGI,[1],> 100 µM
same,TGI,[2],> 100 µM
same,TGI,[3],> 100 µM
same,TGI,[4],> 100 µM
same,TGI,[5],> 100 µM
same,TGI,[6],> 100 µM
same,TGI,[7],> 100 µM
same,TGI,[8],> 100 µM
same,TGI,[9],> 100 µM
same,TGI,[10],> 100 µM
same,TGI,[55],> 100 µM
same,TGI,[11],> 100 µM
same,TGI,[12],> 100 µM
same,TGI,[13],> 100 µM
same,TGI,[14],> 100 µM
same,TGI,[17],> 100 µM
same,TGI,[18],> 100 µM
same,TGI,[19],> 100 µM
same,TGI,[20],> 100 µM
same,TGI,[21],> 100 µM
same,TGI,[23],> 100 µM
same,TGI,[24],> 100 µM
same,TGI,[25],> 100 µM
same,TGI,[26],> 100 µM
same,TGI,[27],> 100 µM
same,TGI,[28],> 100 µM
same,TGI,[29],> 100 µM
same,TGI,[30],> 100 µM
same,TGI,[31],> 100 µM
same,TGI,[32],> 100 µM
same,TGI,[33],> 100 µM
same,TGI,[34],> 100 µM
same,TGI,[56],> 100 µM
same,TGI,[35],> 100 µM
same,TGI,[36],> 100 µM
same,TGI,[57],> 100 µM
same,TGI,[38],> 100 µM
same,TGI,[39],> 100 µM
same,TGI,[40],> 100 µM
same,TGI,[41],> 100 µM
same,TGI,[42],> 100 µM
same,TGI,[43],> 100 µM
same,TGI,[44],> 100 µM
same,TGI,[45],> 100 µM
same,TGI,[46],> 100 µM
same,TGI,[59],> 100 µM
same,TGI,[47],> 100 µM
same,TGI,[48],> 100 µM
same,TGI,[49],> 100 µM
same,TGI,[50],> 100 µM
same,TGI,[51],> 100 µM
same,TGI,[52],> 100 µM
O=C1CC(C2(O)C(=O)Nc3ccc([N+](=O)[O-])cc32)c2ccccc21 (stereo not drawn),TGI,[54],92.7 µM
same,TGI,[1],> 100 µM
same,TGI,[2],23.9 µM
same,TGI,[3],37.8 µM
same,TGI,[4],76.2 µM
same,TGI,[5],60.6 µM
same,TGI,[6],> 100 µM
same,TGI,[7],> 100 µM
same,TGI,[8],> 100 µM
same,TGI,[9],57.5 µM
same,TGI,[10],> 100 µM
same,TGI,[55],67.7 µM
same,TGI,[11],71.6 µM
same,TGI,[12],37.8 µM
same,TGI,[13],45.1 µM
same,TGI,[14],36.5 µM
same,TGI,[15],88.1 µM
same,TGI,[16],46.6 µM
same,TGI,[17],> 100 µM
same,TGI,[18],81.6 µM
same,TGI,[19],> 100 µM
same,TGI,[20],44.9 µM
same,TGI,[21],> 100 µM
same,TGI,[22],85.4 µM
same,TGI,[23],> 100 µM
same,TGI,[24],> 100 µM
same,TGI,[25],62 µM
same,TGI,[26],29.9 µM
same,TGI,[27],26.3 µM
same,TGI,[28],> 100 µM
same,TGI,[29],41.4 µM
same,TGI,[30],62.7 µM
same,TGI,[31],45.5 µM
same,TGI,[32],> 100 µM
same,TGI,[34],45.3 µM
same,TGI,[56],98.6 µM
same,TGI,[35],54.7 µM
same,TGI,[57],64.1 µM
same,TGI,[37],> 100 µM
same,TGI,[38],57.7 µM
same,TGI,[39],78.7 µM
same,TGI,[40],40.2 µM
same,TGI,[41],61.1 µM
same,TGI,[42],> 100 µM
same,TGI,[58],31.8 µM
same,TGI,[43],> 100 µM
same,TGI,[44],71 µM
same,TGI,[45],33 µM
same,TGI,[53],> 100 µM
same,TGI,[46],52.2 µM
same,TGI,[59],> 100 µM
same,TGI,[47],80.5 µM
same,TGI,[48],> 100 µM
same,TGI,[50],36.6 µM
same,TGI,[51],> 100 µM
same,TGI,[52],75.6 µM
